The subject of experiment [1] is p46 hyperphosphorylation. Briefly: p46 hyperphosphorylation induced by stress-inducing agents, Western blot. In kind it is cell-based, human. Particulars: for hyperphosphorylation of p46 (induction): 45 minutes. The protocol:
FIG. 4. […] (A) IMR90 cells were treated with 0, 0.5, 1, or 4 μM of BPDE and trypsinized after 30 minutes. (B) IMR90 cells were incubated in the presence or absence of suramin (0.15 mM) for 1 hour before being irradiated with 0 or 20 J/m^2 of UVC. (C) IMR90 cells were treated with 0.7 M NaCl, 1 mM H2O2, 0.4 M Sorbitol or PBS (control) for 45 minutes before being lysed.
(§1) Cell culture and treatment. Normal human fibroblast IMR90 was purchased from American Type Culture Collection (Manassas, Va.). Cells were routinely cultured in Dulbecco's Modified Eagle's Medium (DMEM) containing 10% fetal bovine serum, 2 mM L-glutamine, 4.5 g/liter glucose, 100 units penicillin and 100 μg streptomycin at 37° C. under an atmosphere of 5% CO2. For UV irradiation, cells were washed twice with phosphate-buffered saline (PBS) and then irradiated with appropriate doses of UVC (254 nm). Fresh complete medium was added back and cells were lysed at appropriate times. For treatment with BPDE, cells were washed with PBS twice and fresh DMEM was added. BPDE was dissolved in anhydrous dimethyl sulfoxide (DMSO) and appropriate amount of BPDE solution was added to DMEM. Cells were lysed 30 minutes later.
(§2) Western Blotting. Lysates prepared from equal number of cells were mixed with equal volume of 2× sample buffer (50 mM Tris.HCl, pH 6.9, 9% glycerol, 2.3% SDS, 0.1% bromophenol blue and 10% mecaptoethanol) and the proteins were separated on a SDS/polyacrylamide gel. The proteins were then electroblotted onto an Immobilon-P membrane (Millipore, Bedford, Mass.). The blots were blocked for 1 hour at room temperature in Tris-buffered saline (20 mM Tris-HCl, pH 7.6, 137 mM NaCl) containing 0.1% (v/v) Tween 20 and 5% (w/v) non-fat dry milk (blocking solution), and then incubated for 1 hour at room temperature with appropriate antibodies at a concentration of 0.2–1 μg/ml. The blots were washed several times and then incubated with horseradish peroxidase-conjugated goat-anti-mouse IgG (Santa Cruz Biotechnology) that had been diluted 1:3000 with blocking solution. Enhanced chemiluminescence (Amersham, Arlington Heights, Ill.) was used according to the manufacturer's recommendations to detect the signal.
(§3) The data shown in FIG. 4 were obtained as follows. (A) IMR90 cells were treated with 0, 0.5, 1, or 4 μM of BPDE and trypsinized after 30 minutes. Digitonin-solubilized fraction (Cyto) and NP-40-solubilized fraction (Nuc) were separated on SDS-PAGE. SC-54 was used for Western Blotting. In FIG. 4, (B) IMR90 cells were incubated in the presence or absence of suramin (0.15 mM) for 1 hour before being irradiated with 0 or 20 J/m^2 of UVC. After 0, 10, 20 or 30 minutes, whole cell lysates were prepared, separated on SDS-PAGE and transferred to a PVDF membrane. SC-54 or an antibody against human ERK2 was used for Western Blotting. […] In FIG. 4, (C) IMR90 cells were treated with 0.7 M NaCl, 1 mM H2O2, 0.4 M Sorbitol or PBS (control) for 45 minutes before being lysed. Whole cell lysates were separated on SDS-PAGE. SC-54 was used for Western Blotting.
On the technique in general: In western blotting, separated proteins are transferred to a membrane and probed.

The test system of experiment [2] is p46 hyperphosphorylation. Kind of experiment: p46 (Nogo B) hyperphosphorylation after UVC irradiation in presence of inhibitors, Western blot with SC-54. In kind it is cell-based, human. The procedure: FIG. 5. […] Then cells were irradiated with 20 J/m^2 of UVC and lysed 30 minutes later. Whole cell lysates were separated on SDS-PAGE. SC-54 was used for Western Blotting.
as §1, §2, §3
It has been shown that elevated cellular stress level can activate p38 MAPK. The role of activation of p38 MAPK in p46 hyperphosphorylation was investigated.

The test system of experiment [3] is MEK. Particulars: cited from earlier work.
In experiment [4] the test system is p38. The conditions noted are these: read-out: IC50 (p38-specific inhibitor); cited from earlier work.
Experiment [5] has as its system ERK2. Kind of experiment: ERK2 phosphorylation after UVC irradiation, Western blot. The format is cell-based, human. The conditions noted are these: preincubation 0.15 mM for 1 hour, 20 J/m^2 UVC, IMR90 cells. The protocol:
as §2
The data shown in FIG. 4 were obtained as follows. (A) IMR90 cells were treated with 0, 0.5, 1, or 4 μM of BPDE and trypsinized after 30 minutes. Digitonin-solubilized fraction (Cyto) and NP-40-solubilized fraction (Nuc) were separated on SDS-PAGE. SC-54 was used for Western Blotting. […]

Here are results for nine molecules from patent publication US7186530B1, “Protein associated with cell stress response” (Chiron Corporation, priority 2000, dated 2007).

One may read the IC50 as the midpoint of a concentration-inhibition curve.

Molecules are shown by their SMILES.

Take `OC1c2cc3ccc4cccc5ccc(c2C2OC2C1O)c3c45` (racemic) [BPDE, (±)-r-7,t-8-dihydroxy-t-9,10-epoxy-7,8,9,10-tetrahydrobenzo(a)pyrene]: the “p46 hyperphosphorylation (induction)” value in experiment [1] (0, 0.5, 1, or 4 μM, 30 minutes, IMR90 cells) is “led to p46 hyperphosphorylation in a dose-dependent manner”.
Turning to `OO` [H2O2], the “hyperphosphorylation of p46 (induction)” value in experiment [1] (1 mM, IMR90 cells) is on record as “rapid hyperphosphorylation”.
`[Cl-].[Na+]` [NaCl]: the “hyperphosphorylation of p46 (induction)” value in experiment [1] (0.7 M, IMR90 cells) is given as “rapid hyperphosphorylation”.
In the case of `COc1cccc(-c2cc(=O)c3ccccc3o2)c1N` [PD98059], the p46 hyperphosphorylation result in experiment [2] (20 uM) was “not affected”. Also, in experiment [3], the IC50 was […].
For `Oc1ccc(-c2nc(-c3ccc(F)cc3)c(-c3ccncc3)[nH]2)cc1` [SB202190], the p46 hyperphosphorylation result in experiment [2] (270 nM inhibitor, 30 minutes before 20 J/m^2 UVC, IMR90 cells) was “almost completely abolished”. Further, the “hyperphosphorylation of Nogo” value in experiment [2] (indicated concentrations for 30 minutes, then 20 J/m^2 UVC, lysed 30 minutes later, IMR90 (FIG. 5)) is given as “abolished”. Also, the IC50 in experiment [4] was […].
In the case of `CCc1nc(-c2ccc(OC)cc2)[nH]c1-c1ccncc1` [SB202474], the p46 hyperphosphorylation result in experiment [2] (concentration not given, UVC, IMR90 cells) was “no effect”.
For `C[C@@]1(CO)[C@H](O)CC[C@@]2(C)[C@H]1CC[C@H]1C[C@@H]3C[C@@]12CC[C@]3(O)CO` [aphidicolin], the p46 phosphorylation state result in experiment [1] (cells arrested by the agent) is “hyperphosphorylated”.
Regarding `OC[C@@H](O)[C@@H](O)[C@H](O)[C@@H](O)CO` [sorbitol], in experiment [1] (0.4 M, IMR90 cells), the “hyperphosphorylation of p46 (induction)” value was “rapid hyperphosphorylation”.
For `Cc1ccc(C(=O)Nc2ccc(S(=O)(=O)O)c3cc(S(=O)(=O)O)cc(S(=O)(=O)O)c23)cc1NC(=O)c1cccc(NC(=O)Nc2cccc(C(=O)Nc3cc(C(=O)Nc4ccc(S(=O)(=O)O)c5cc(S(=O)(=O)O)cc(S(=O)(=O)O)c45)ccc3C)c2)c1` [suramin], the p46 hyperphosphorylation entry in experiment [2] (preincubation 0.15 mM for 1 hour, 20 J/m^2 UVC, IMR90 cells) is on record as “no effect”. The “phosphorylation of ERK2” value in experiment [5] was “completely blocked”.
